Results taken from patent US5753516A, “Screening method for ligands of the EBI-1 receptor” (priority 1995, dated 1998).
pKd: −log10 of the molar value. Where two headings read alike, the source gives them in different places.

Key:
human T cells = test: Migration of human peripheral blood T cells; type: cell-based
NALM 6 cells = test: MET-ENK-FITC binding to NALM 6 cells (flow cytometry, Scatchard); set-up: species or system human; conditions: NALM 6

CSCC[C@H](NC(=O)[C@H](Cc1ccccc1)NC(=O)CNC(=O)CNC(=O)[C@@H](N)Cc1ccc(O)cc1)C(=O)O [MET-ENK, Tyr-Gly-Gly-Phe-Met]
human lymphocyte / T cell migration (human T cells): stimulate human lymphocyte migration | Bmax, low affinity sites (NALM 6 cells): 4.48×10^4 sites/cell | number of high affinity sites (NALM 6 cells): 25.9 pM | number of low affinity sites (NALM 6 cells): 149 pM | Bmax, low affinity sites (NALM 6 cells; listed as methionine enkephalin): 4.48×10^4 sites/cell | pKd (NALM 6 cells; read-out: Kd, high affinity site): 9.00 | pKd (NALM 6 cells; read-out: Kd, low affinity site): 6.50
